Source: patent publication US10172951B2, “Dendrimer based nanodevices for therapeutic and imaging purposes” (priority 2009, dated 2019)

What was measured:
[1] = Transmembrane transport and permeability, amnion; format: in vitro ADME, human
From the text: (§1) All human fetal membrane specimens were obtained at the time of cesarean section for obstetrical indications. The fetal membrane comprising chorioamniotic membrane (intact membranous tissue containing both amnion and chorion together) (n=7) and amnion (n=7) and chorion (n=7) were separately procured (size 6×9″). Each membrane was cut into 9 pieces for the 9 sets of diffusion chamber. The fresh membranes were collected immediately after the delivery, washed with PBS to remove the blood and stored in PBS until (˜1 h at 4° C.) it was mounted on the diffusion chamber (37±0.5° C.). Excess membranes were trimmed. The diffusion experiments were performed for 48 hours by mounting the membrane in the chamber to study the transport across the membranes. In all the experiments with chorioamniotic membrane the choriodecidua (maternal side) was placed facing the donor chamber and the amnionic epithelium (fetal side) was facing the receptor chamber. The chorion and amnion were mechanically separated by gently pulling the two membranes apart. For the chorion, the side attached to amnion was placed facing the receptor chamber and for the amnion the side attached to the chorion was placed facing the donor chamber in the diffusion apparatus. For histological evaluation, the tissue samples were collected at 0.5, 1, 2, 3 and 4 hours for and were fixed in 10% formalin overnight. Further, some sections were analyzed by hematoxylin and eosin (H & E) staining. The membrane thickness was measured using the Mitutoyo Super Caliper by placing the respective membranes between the two glass slides and subtracting the thickness of the glass slides without the membrane.
(§2) Permeation experiments were carried out using a two-chamber (donor and receptor) side-by-side Permegear diffusion cell with a chamber volume of 3 mL and with a diameter of 13 mm and a diffusional area of 1.32 cm^2. The fetal membranes (chorion and amnion together, amnion and chorion) each (n=9) were mounted between two halves of the donor and receptor cell (9 sets), which were further clamped together and sealed tightly with the rubber packing at the end of each glass chamber. The receptor cell (volume 3 mL) was filled with sterile PBS (pH 7.4). The donor cell (volume 3 mL) was filled with solution of compounds whose permeability was evaluated. […] The system was maintained at 37° C. by using a circulating water bath and a jacket surrounding each cell. The donor and receiving medium was continuously stirred (600 rpm) with a magnetic bar to avoid stagnant aqueous diffusion layer effects. Aliquots (200 μL) were collected from the receptor cell every 30 min till first 6 hours and at predetermined intervals thereafter and replaced with equal volume of PBS to maintain sink conditions throughout the study. […] The concentration of compound in the receptor medium was determined using a Molecular Devices SpectroMax M2, UV visible and Fluorescent plate reader at ex 495/em 521. The cumulative amount of compound transported across the membrane in the receptor cell was determined using a calibration curve (a transport of 50% corresponds equilibrium achieved). All the experiments were conducted in dark room. All experiments were done in triplicate and the results are reported as mean±STDev.
[formula] To determine the permeability coefficient, P, a plot of −V/2A ln (1−2Ct/C0) against t was constructed and linear fitting was performed. The slope of the linear portion of the graph yields a permeability coefficient. The thickness of the chorioamnion, chorion and amnion was 0.22 mm, 0.16 mm and 0.05 mm respectively (n=7), as measured with the help of Mitutoyo Super Caliper. […] The FIGS. 93A-C and FIG. 94 show the plots used for calculation of the permeability and the correlation in all the cases ranged from 0.96 to 0.99.

[2] = Transmembrane transport and permeability, chorion; format: in vitro ADME, human; settings: 0.3 mg/mL
From the text: as §1, §2
(§3) [formula] […] The thickness of the chorioamnion, chorion and amnion was 0.22 mm, 0.16 mm and 0.05 mm respectively (n=7), as measured with the help of Mitutoyo Super Caliper. […]

[3] = Permeability across the rabbit amniotic membrane (side by side diffusion chamber); format: in vitro ADME; settings: in 1 hour, 37° C.
Experimental: The permeability of the G4-PAMAM-FITC across the normal rabbit amniotic membrane and endotoxin treated rabbit amniotic membrane was studied using a side by side Permegear diffusion chamber at 37° C. for 48 hours. Endotoxin treated membranes were used to mimic the condition of E. coli infection in uterus. The freshly excised rabbit membranes obtained after sacrificing the rabbit was placed in between the donor and receptor chamber.

[4] = Transmembrane transport and permeability, chorioamnion; format: in vitro ADME, human; settings: 0.3 mg/mL
From the text: as §1
Permeation experiments were carried out using a two-chamber (donor and receptor) side-by-side Permegear diffusion cell with a chamber volume of 3 mL and with a diameter of 13 mm and a diffusional area of 1.32 cm^2. The fetal membranes (chorion and amnion together, amnion and chorion) each (n=9) were mounted between two halves of the donor and receptor cell (9 sets), which were further clamped together and sealed tightly with the rubber packing at the end of each glass chamber. […] The donor cell (volume 3 mL) was filled with solution of compounds whose permeability was evaluated. […] The concentration of compound in the receptor medium was determined using a Molecular Devices SpectroMax M2, UV visible and Fluorescent plate reader at ex 495/em 521. The cumulative amount of compound transported across the membrane in the receptor cell was determined using a calibration curve (a transport of 50% corresponds equilibrium achieved). […]
as §3

[5] = Brain biodistribution of FITC-G4-OH after subarachnoid/subdural injection (microscopy, HPLC); format: in vivo, rabbit; settings: 24 hours after injection into CSF
Experimental: Animals in each group were euthanized 24 hours after subarachnoid administration of FITC-G4-OH with an overdose of pentobarbital (120 mg/kg administered intra-peritoneal). Following administration of the drug, animals were secured to a stainless steel surgical apparatus, the heart was exposed rapidly and a butterfly needle was inserted and secured in the left apex of the heart, the vena cava was incised and perfusion was initiated. Animals were perfused under pressure with 30 mL chilled physiological saline (0.9%) and 120 mL of 4% paraformaldehyde in phosphate buffer (0.1 M, pH 7.4) at a constant rate of 5 ml/min using a constant pressure pump, brains were removed and immersed in the same fixative for 48 hours, cryoprotected using graded solutions of sucrose and frozen at −80° C. until they were sectioned. […]
Brain tissue samples weighing approximately 1 mg were collected from healthy pups and CP pups and used for analysis. […] The samples were analyzed by HPLC and the amount of dendrimer-FITC quantified using the standard calibration curve for FITC-G4-OH. To estimate the fluorescence as a measure of concentration of FITC-G4-OH localized in hippocampus or cortex, the samples were analyzed by reverse phase-HPLC and the amount was quantified using the standard calibration curve for FITC-G4-OH. […]

[6] = not told; cited from earlier work

Molecule	Permeability coefficient, Amnion ([1]; 0.3 mg/mL)	transport across amnion ([1]; in 2 hours, 0.3 mg/mL) [%]	transport across amnion ([1]; in 5 hours) [%]	Permeability coefficient, Chorion [2]	crossed the membrane [3] [%]	Permeability coefficient, Chorioamnion [4]	regional and cellular distribution in brain [5]	in vitro permeability [6]
fluorescein isothiocyanate [FITC, reference compound]	2.26×10^−6 cm^2/s	49	50	1.32×10^−6 cm^2/s	50	7.93×10^−7 cm^2/s	non-specific uptake in all layers of the cortex and ventricular region	
CC(C)(N)C(=O)O [2-aminoisobutyrate]								1.5×10^−6 cm^2/s
